Results: patent US11986463B2, “Combination therapy for the treatment of gastrointestinal stromal tumor” (Deciphera Pharmaceuticals, LLC, priority 2018, dated 2024)
Where two headings read alike, the source gives them in different places. Values belong to the molecule of their own block, whether it stands above or below them.

Tests used:
GIST T1 xenograft = GIST T1 xenograft model; type: in vivo, mice; conditions: for mice with partial tumor regression during the dosing period / mice with complete tumor regression during the dosing period: days 10-27; for mice remaining in partial tumor regression at the end of study: end of study day 66
Method: The GIST T1 xenograft model was performed in compliance with all the laws, regulations and guidelines of the National Institutes of Health (NIH) and with the approval of the Animal Care and Use Committee of MI Bioresearch (Ann Arbor, MI), an AAALAC accredited facility. All mice had food and water ad libitum. […] Female Envigo nude mice (HsdCrl:Athymic Nude-NU-Foxn1nu; 6-7 weeks old) were inoculated subcutaneously just below the right high axilla with five million cells in Dulbecco's Phosphate Buffered Saline mixed with an equal volume of Matrigel, using a 27 gauge needle and syringe. When tumor burdens reached 117 mm^3 on average on day 10, mice were randomly assigned into groups such that the mean tumor burden for all groups was within 10% of the overall mean tumor burden for the study population. […] On Day 27, all animals were placed on control diet to monitor tumor regrowth. Tumor volume and body weight were measured thrice weekly. Tumor burden (mg) was estimated from caliper measurements by the formula: tumor burden (mg=mm^3)=(length×width^2)/2.

[1] = tested on: GIST-T1/T670I imatinib resistant cells; test: Colony outgrowth assay, GIST-T1/T670I; type: cell-based
From the text: (§1) The outgrown cell colonies were stained with crystal violet and counted.

[2] = tested on: GIST-T1 (57 bp exon 11 deletion) imatinib sensitive cells; test: Colony outgrowth assay, GIST-T1; type: cell-based
From the text: as §1

[3] = tested on: GIST-T1/D816E imatinib resistant cells; test: Colony outgrowth assay, GIST-T1/D816E; type: cell-based
From the text: as §1

[4] = target: T1, human efflux transporter BCRP (Homo sapiens, UniProt Q9UNQ0); test: BCRP vesicular transport inhibition assay; type: biochemical
T1 construct: inside-out membrane vesicles
T1 sequence (Q9UNQ0 1-655): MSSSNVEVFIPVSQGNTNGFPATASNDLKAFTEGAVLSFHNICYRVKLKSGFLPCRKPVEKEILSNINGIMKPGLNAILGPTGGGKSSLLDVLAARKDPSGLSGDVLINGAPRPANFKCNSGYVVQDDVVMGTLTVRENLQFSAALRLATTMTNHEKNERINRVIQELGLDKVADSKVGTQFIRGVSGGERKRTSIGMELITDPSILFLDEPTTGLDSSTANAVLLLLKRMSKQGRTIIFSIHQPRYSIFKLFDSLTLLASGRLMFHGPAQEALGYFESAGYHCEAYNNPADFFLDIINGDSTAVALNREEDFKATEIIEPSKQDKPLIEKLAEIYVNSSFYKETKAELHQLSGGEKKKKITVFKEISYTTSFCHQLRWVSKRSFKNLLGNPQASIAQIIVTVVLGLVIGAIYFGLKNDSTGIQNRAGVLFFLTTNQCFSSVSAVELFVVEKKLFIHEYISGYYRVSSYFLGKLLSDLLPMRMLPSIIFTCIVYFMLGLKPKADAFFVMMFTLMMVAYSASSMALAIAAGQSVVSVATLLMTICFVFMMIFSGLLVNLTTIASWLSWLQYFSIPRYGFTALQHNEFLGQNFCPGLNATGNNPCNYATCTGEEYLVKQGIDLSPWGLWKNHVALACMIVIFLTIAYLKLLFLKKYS
Method: (§2) The IC50 value was estimated to be approximately 0.04 μM.

BCRP = target: T2, BCRP (Homo sapiens, UniProt Q9UNQ0); test: BCRP vesicular transport inhibition assay; type: biochemical; conditions: human; 0.04 μM, lowest concentration tested; read-out: inhibition of the transport of the probe substrate of BCRP
T2 construct: inside-out membrane vesicles
T2 sequence (Q9UNQ0 1-655): T1 sequence (Q9UNQ0 1-655)
Method: as §2

[5] = tested on: Ba/F3 cells transformed with oncogenic KIT V560D mutant; conditions: 100 nM, 250 nM or 500 nM imatinib single agent
Method: A saturation mutagenesis study was performed in Ba/F3 cells transformed with oncogenic KIT V560D mutant. DNA nicking was induced by N-ethyl-N-nitrosourea (ENU) for 18 hours to generate additional mutations in the KIT gene or other genes in a random fashion. Assays were conducted in 6 well plates with 100 cells seeded per well. […] These cells were subjected to PCR and sequencing of the KIT gene to determine the presence of a resistant secondary mutation induced by the ENU treatment.

[6] = low dose Compound A approximately 25 mg/kg/day in diet, trametinib 0.5 mg/kg BID where combined

IC50 ([4]; 7 concentrations, vesicular transport inhibition, read-out: IC50, BCRP (estimated)): ~40 nM | IC50 ([4]; read-out: IC50, BCRP efflux transporter): 40 nM | inhibition at 0.04 µM (BCRP): 44%
Compound: CCn1c(=O)c(-c2cc(NC(=O)Nc3ccccc3)c(F)cc2Br)cc2cnc(NC)cc21 [Compound A, 1-[4-bromo-5-[1-ethyl-7-(methylamino)-2-oxo-1,2-dihydro-1,6-naphthyridin-3-yl]-2-fluorophenyl]-3-phenylurea]
mice with partial tumor regression during the dosing period (GIST T1 xenograft; high dose Compound A approximately 100 mg/kg/day in diet): 4/10 | mice with complete tumor regression during the dosing period (GIST T1 xenograft; high dose Compound A approximately 100 mg/kg/day in diet, trametinib 0.5 mg/kg BID where combined): 6/10 | mice remaining in partial tumor regression at the end of study (GIST T1 xenograft; high dose Compound A approximately 100 mg/kg/day, trametinib 0.5 mg/kg BID where combined): 1/10 | mice with complete tumor regression during the dosing period (GIST T1 xenograft; [6]): 2/10 | mice with partial tumor regression during the dosing period (GIST T1 xenograft; [6]): 6/10 | mice remaining in partial tumor regression at the end of study (GIST T1 xenograft; low dose Compound A approximately 25 mg/kg/day, trametinib 0.5 mg/kg BID where combined): 2/10 | GIST T1/T670I colony outgrowth ([1]; Compound A 100 nM or 250 nM single agents, dose dependent (FIG. 10C)): 78-89 % of vehicle control | GIST T1 colony outgrowth ([2]; Compound A single agents (FIG. 14A)): 37-41 % of vehicle control | GIST T1/D816E colony outgrowth ([3]; Compound A 50 nM, 100 nM or 250 nM single agent (FIG. 14B)): 81-93 % of vehicle control

Compound: CCn1c(=O)c(-c2cc(NC(=O)Nc3ccccc3)c(F)cc2Br)cc2cnc(N)cc21 [Compound B, 1-(5-(7-amino-1-ethyl-2-oxo-1,2-dihydro-1,6-naphthyridin-3-yl)-4-bromo-2-fluorophenyl)-3-phenylurea]
GIST T1/T670I colony outgrowth ([1]; Compound B 50 nM, 100 nM, 250 nM single agents (FIG. 9C)): 75-78 % of vehicle control | GIST T1/T670I colony outgrowth ([1]; Compound B 100 nM or 250 nM single (FIG. 13C)): 75-78 % of vehicle control | GIST T1/T670I colony outgrowth ([1]; Compound B 100 nM or 250 nM single agent (FIG. 11C)): 72-78 % of vehicle control | reduction of GIST T1 colony outgrowth compared to vehicle control ([2]; Compound B single agent (FIG. 9A)): 42-54% | GIST T1 colony outgrowth ([2]; Compound B single agent (FIG. 13A)): 42-54 % of vehicle control | GIST T1 colony outgrowth ([2]; each concentration of Compound B as a single agent (FIG. 11A)): 27-31 % of vehicle control | GIST T1/D816E colony outgrowth ([3]; Compound B 50 nM, 100 nM or 250 nM single agent (FIG. 9B)): 59-84 % of vehicle control | GIST T1/D816E colony outgrowth ([3]; Compound B 50 nM, 100 nM or 250 nM single agent (FIG. 15)): 52-95 % of vehicle control | GIST T1/D816E colony outgrowth ([3]; Compound B 100 nM or 250 nM single agent (FIG. 13B)): 58-84 % of vehicle control | GIST T1/D816E colony outgrowth ([3]; Compound B 100 nM or 250 nM single agents (FIG. 11B)): 74-83 % of vehicle control

Compound: Cc1ccc(NC(=O)c2ccc(CN3CCN(C)CC3)cc2)cc1Nc1nccc(-c2cccnc2)n1 [imatinib, reference compound]
reduction of GIST-T1/T670I colonies ([1]; imatinib 500 nM single agent (FIG. 10C)): does not show any reduction of colonies | outgrowth of resistant secondary KIT mutations [5]: T670I, K807E, and/or D816V imatinib-resistant secondary KIT mutants were identified
